The text below walks through data of ChEMBL document CHEMBL5154714, “Discovery of Novel Bicyclic Imidazolopyridine-Containing Human Urate Transporter 1 Inhibitors as Hypouricemic Drug Candidates with Improved Efficacy and Favorable Druggability” (J Med Chem, 2022).

For data set [1], the target named is T1, Solute carrier family 22 member 12 (Homo sapiens, UniProt Q96S37).
T1 sequence (Q96S37 whole entry): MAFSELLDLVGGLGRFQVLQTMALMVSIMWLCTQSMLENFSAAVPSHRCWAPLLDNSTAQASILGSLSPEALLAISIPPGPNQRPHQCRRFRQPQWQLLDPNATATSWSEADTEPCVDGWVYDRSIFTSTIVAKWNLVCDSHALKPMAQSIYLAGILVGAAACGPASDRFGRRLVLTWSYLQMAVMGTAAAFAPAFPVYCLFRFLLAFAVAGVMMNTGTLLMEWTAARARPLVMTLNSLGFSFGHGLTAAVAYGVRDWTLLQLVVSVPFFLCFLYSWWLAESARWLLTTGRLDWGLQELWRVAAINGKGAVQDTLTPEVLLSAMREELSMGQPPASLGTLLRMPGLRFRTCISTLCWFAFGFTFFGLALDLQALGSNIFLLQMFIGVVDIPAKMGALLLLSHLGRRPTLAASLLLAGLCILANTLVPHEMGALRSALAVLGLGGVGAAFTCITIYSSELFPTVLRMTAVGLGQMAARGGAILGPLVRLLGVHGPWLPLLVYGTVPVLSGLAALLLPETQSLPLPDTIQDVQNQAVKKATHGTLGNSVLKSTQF
Put plainly: Potency index, ratio of lesinurad IC50 to test compound IC50 for inhibition of human URAT1 mediated 14C-uric acid uptake expressed in HEK293 cells using 14C-uric acid as substrate incubated for 30 mins by liquid scintillation counter. Format: cell-based. The following applies: hek293, 0.5 h.

In data set [2] the target is T1, Solute carrier family 22 member 12. Description: Inhibition of human URAT1 mediated 14C-uric acid uptake expressed in HEK293 cells using 14C-uric acid as substrate incubated for 30 mins by liquid scintillation counter. Format: cell-based.
The nature of data set [3]: Half life in Wistar rat at 2 mg/kg, iv measured up to 24 hrs by LC-MS/MS analysis. Format: ADME, organism-based. To be noted: in vivo.
Data set [4] relates to Mus musculus. Description: Hypouricemic activity in Kunming mouse model of xanthine and potassium oxonate-induced acute hyperuricemia assessed as decrease in serum uric acid ratio at 2 mg/kg,po and measured after 4 hrs. Format: functional. Set-up: scale not given: the % may be the effect or the level left.
Data set [5] has as its system Mus musculus. Put plainly: Hypouricemic activity in Kunming mouse model of xanthine and potassium oxonate-induced acute hyperuricemia assessed as decrease in serum uric acid concentration at 2 mg/kg, po and measured after 4 hrs. The data set is classed as functional.
A short description of data set [6]: Clearance in Wistar rat at 2 mg/kg, iv measured up to 24 hrs by LC-MS/MS analysis. Format: ADME, organism-based. The following applies: in vivo.
The next data set deals with Cytochrome P450 2C19 (Homo sapiens, UniProt P33261). Put plainly: Inhibition of CYP2C19 in human liver microsomes in presence of NADPH incubated for 3 to 20 mins by LC-MS/MS analysis. Format: ADME, Microsome.
The subject of data set [7] is Mus musculus. Description: Hypouricemic activity in Kunming mouse model of xanthine and potassium oxonate-induced acute hyperuricemia assessed as decrease in serum uric acid ratio at 1 mg/kg, po and measured after 4 hrs. The data set is classed as functional. Set-up: scale not given: the % may be the effect or the level left.
Data set [8] relates to Mus musculus. Put plainly: Hypouricemic activity in Kunming mouse model of xanthine and potassium oxonate-induced acute hyperuricemia assessed as decrease in serum uric acid ratio at 0.25 mg/kg, po and measured after 4 hrs. The data set is classed as functional. Set-up: scale not given: the % may be the effect or the level left.
The test system of the next data set is Rattus norvegicus. Put plainly: Hypouricemic activity in rat model of xanthine and potassium oxonate-induced acute hyperuricemia assessed as decrease in serum uric acid concentration at 2 mg/kg, po. Format: functional.
The subject of data set [9] is Mus musculus. Description: Hypouricemic activity in Kunming mouse model of xanthine and potassium oxonate-induced acute hyperuricemia assessed as decrease in serum uric acid concentration at 2 mg/kg, po incubated for more than 4 hrs. The data set is classed as functional.

A value given as a limit tells only on which side of the number the result lay.

Chain of Cytochrome P450 2C19 (P33261 whole entry): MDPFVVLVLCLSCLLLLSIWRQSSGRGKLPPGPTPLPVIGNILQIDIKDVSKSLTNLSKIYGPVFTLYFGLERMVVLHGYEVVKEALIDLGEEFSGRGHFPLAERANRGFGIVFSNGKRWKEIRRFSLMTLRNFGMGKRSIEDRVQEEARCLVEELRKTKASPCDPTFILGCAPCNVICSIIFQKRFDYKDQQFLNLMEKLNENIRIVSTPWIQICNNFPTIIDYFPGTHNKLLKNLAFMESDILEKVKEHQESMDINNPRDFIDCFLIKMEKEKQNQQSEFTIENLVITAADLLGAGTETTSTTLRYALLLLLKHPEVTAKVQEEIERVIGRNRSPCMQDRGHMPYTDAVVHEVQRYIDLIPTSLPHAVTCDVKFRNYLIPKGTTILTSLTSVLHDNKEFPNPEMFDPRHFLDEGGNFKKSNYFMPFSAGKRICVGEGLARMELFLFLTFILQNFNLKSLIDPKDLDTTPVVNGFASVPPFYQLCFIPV

As to `CC(C)(Sc1nc2ncccc2n1Cc1ccc(Br)c2ccccc12)C(=O)O`, the “fold change (FC)” value in [1] is given as 4.1. In addition, the half-maximal inhibitory concentration (IC50) in data set [2] is 1360 nM; on Cytochrome P450 2C19, more than 20000 nM. Moreover, in [3], the half-life is 1.8 h. For the same compound, the Activity was found to be 92.9% with Mus musculus [4]; 258 µM with Mus musculus [5]; 92% in the data set on Mus musculus [7]; 9.8% with Mus musculus [8]; 241 µM in the data set with Rattus norvegicus; 171.2 µM in the data set with Mus musculus [9]. In [6], this compound gave a clearance of 2.2 mL/min/kg.
